For this test, the target named is T1, human CB2R (Homo sapiens, UniProt P34972).
T1 construct: host or cells: CHO cells
T1 sequence (P34972 whole entry): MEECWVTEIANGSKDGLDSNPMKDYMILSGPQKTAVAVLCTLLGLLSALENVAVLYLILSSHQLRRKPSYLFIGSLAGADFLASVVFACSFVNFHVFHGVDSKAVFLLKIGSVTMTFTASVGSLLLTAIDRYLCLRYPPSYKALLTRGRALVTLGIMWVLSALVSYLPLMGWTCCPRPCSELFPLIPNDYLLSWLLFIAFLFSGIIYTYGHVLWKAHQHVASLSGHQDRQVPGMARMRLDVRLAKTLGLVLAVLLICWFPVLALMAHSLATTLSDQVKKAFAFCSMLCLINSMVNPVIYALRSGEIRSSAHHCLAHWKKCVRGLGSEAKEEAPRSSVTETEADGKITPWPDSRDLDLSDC
Put plainly: CB2R mediated modulation of cAMP synthesis. It counts as cell-based. The note with it: found through the use of the above described assays (binding and cAMP); CHO cells expressing human CB2R, forskolin-stimulated cAMP. As to the method:
B. CB2R Mediated Modulation of cAMP Synthesis:
CHO cells expressing human CB2R (Euroscreen) were plated at a density of 5000 cells per well in 384 well plates and incubated overnight at 37° C. After removing the media, the cells were treated with test compounds diluted in stimulation buffer containing 1 mM IBMX, 0.25% BSA and 10 uM Forskolin. The assay was incubated for 30 minutes at 37° C. Cells were lysed and the cAMP concentration was measured using DiscoverX -XS cAMP kit, following the manufacturer's protocol. In this setting, agonists will decrease forskolin induced production of cAMP while inverse agonists will further increase forskolin induced production of cAMP. EC50 of agonists were calculated as follows. The maximal amount of cAMP produced by forskolin compared to the level of cAMP inhibited by 1 uM CP55940 is defined as 100%. The EC50 value of each test compound was determined as the concentration at which 50% of the forskolin-stimulated cAMP synthesis was inhibited. Data was analyzed using a four-parameter logistic model. (Model 205 of XLfit 4.0).
As to `CC(C)(C)c1ccc(NC(=O)C(C)(C)S(=O)(=O)c2ccc(Cl)cc2)cc1` [N-(4-tert-Butyl-phenyl)-2-(4-chloro-benzenesulfonyl)-2-methyl-propionamide], the agonistic activity entry is “agonistic activity”.

Consider `Cc1c(-c2ccccc2)noc1NC(=O)C(C)(C)S(=O)(=O)c1ccc(Cl)cc1` [2-(4-Chloro-benzenesulfonyl)-2-methyl-N-(4-methyl-3-phenyl-isoxazol-5-yl)-propionamide], for which the agonistic activity result is given as “agonistic activity”.

As for `Cc1csc(NC(=O)C(C)(C)S(=O)(=O)c2ccc(Cl)cc2)n1` [2-(4-Chloro-benzenesulfonyl)-2-methyl-N-(4-methyl-thiazol-2-yl)-propionamide], the agonistic activity entry is given as “agonistic activity”.

In the case of `Cn1c(NC(=O)C(C)(C)S(=O)(=O)c2ccc(Cl)cc2)nc2ccccc21` [2-(4-Chloro-benzenesulfonyl)-2-methyl-N-(1-methyl-1H-benzoimidazol-2-yl)-propionamide], the agonistic activity entry was “agonistic activity”.

`Cn1nc(C(C)(C)C)cc1NC(=O)C(C)(C)S(=O)(=O)c1ccc(F)cc1F` [N-(5-tert-Butyl-2-methyl-2H-pyrazol-3-yl)-2-(2,4-difluoro-benzenesulfonyl)-2-methyl-propionamide]: the agonistic activity result is “agonistic activity”.

Turning to `CC(C)(C)c1cc(NC(=O)C(C)(C)S(=O)(=O)c2ccccc2F)no1` [N-(5-tert-Butyl-isoxazol-3-yl)-2-(2-fluoro-benzenesulfonyl)-2-methyl-propionamide], the agonistic activity entry is “agonistic activity”.

For the compound `CC(C)(C)c1cc(NC(=O)C(C)(C)S(=O)(=O)c2cccc(C#N)c2)no1` [N-(5-tert-Butyl-isoxazol-3-yl)-2-(3-cyano-benzenesulfonyl)-2-methyl-propionamide], the agonistic activity entry is given as “agonistic activity”.

As to `CC(C)(C)c1cccc(NC(=O)C(C)(C)S(=O)(=O)c2ccc(C(F)(F)F)nc2)c1` [N-(3-tert-butylphenyl)-2-methyl-2-{[6-(trifluoromethyl)pyridin-3-yl]sulfonyl}propanamide], the agonistic activity result was “agonistic activity”.

On to `Cn1nc(C(C)(C)C)cc1NC(=O)C1(S(=O)(=O)c2ccc(C(F)(F)F)cc2)CCOCC1` [4-(4-Trifluoromethyl-benzenesulfonyl)-tetrahydro-pyran-4-carboxylic acid (5-tert-butyl-2-methyl-2H-pyrazol-3-yl)-amide], for which the agonistic activity result is listed as “agonistic activity”.

In the case of `Cc1ccc(NC(=O)C(C)(C)S(=O)(=O)c2ccc(Cl)cc2F)nc1` [2-[(4-chloro-2-fluorophenyl)sulfonyl]-2-methyl-N-(5-methylpyridin-2-yl)propanamide], the agonistic activity result is “agonistic activity”.

For `Cc1ccccc1S(=O)(=O)C(C)(C)C(=O)Nc1nc(C(C)(C)C)cs1` [N-(4-tert-Butyl-thiazol-2-yl)-2-methyl-2-(toluene-2-sulfonyl)-propionamide], the agonistic activity entry is reported as “agonistic activity”.

With `COc1ccc(S(=O)(=O)C(C)(C)C(=O)Nc2nc(C)c(C(C)(C)C)s2)cc1` [N-(5-tert-Butyl-4-methyl-thiazol-2-yl)-2-(4-methoxy-benzenesulfonyl)-2-methyl-propionamide], the agonistic activity result was “agonistic activity”.

As to `CC(C)(C(=O)Nc1nc(-c2ccccc2)cs1)S(=O)(=O)c1ccc(Cl)cc1F` [2-[(4-chloro-2-fluorophenyl)sulfonyl]-2-methyl-N-(4-phenyl-1,3-thiazol-2-yl)propanamide], the agonistic activity entry is “agonistic activity”.

As for `CC(C)C(C(=O)Nc1cc(C(C)(C)C)on1)S(=O)(=O)c1ccc(C(F)(F)F)cc1` (stereo not drawn) [N-(5-tert-Butyl-isoxazol-3-yl)-3-methyl-2-(4-trifluoromethyl-benzenesulfonyl)-butyramide], the agonistic activity entry is recorded as “agonistic activity”.

Turning to `CC(C)(C)c1cc(NC(=O)C(C)(C)S(=O)(=O)c2ccc[n+]([O-])c2)no1`, the agonistic activity result was “agonistic activity”.

`CC(C)(C(=O)Nc1cccc(C(F)(F)F)n1)S(=O)(=O)c1ccc(F)cc1` [2-(4-Fluoro-benzenesulfonyl)-2-methyl-N-(6-trifluoromethyl-pyridin-2-yl)-propionamide]: the agonistic activity entry is on record as “agonistic activity”.

For `Cn1nc(C(C)(C)C)cc1NC(=O)C1(S(=O)(=O)c2ccc(Cl)cc2)CC1` [1-(4-Chloro-benzenesulfonyl)-cyclopropanecarboxylic acid (5-tert-butyl-2-methyl-2H-pyrazol-3-yl)-amide], the agonistic activity result is “agonistic activity”.

For the compound `COc1ccc(S(=O)(=O)C(C)(C)C(=O)Nc2cc(C(C)(C)C)on2)cn1` [N-(5-tert-Butyl-isoxazol-3-yl)-2-(6-methoxy-pyridine-3-sulfonyl)-2-methyl-propionamide], the agonistic activity entry is “agonistic activity”.

On to `CC(C)(C(=O)Nc1cccc(C(F)(F)F)n1)S(=O)(=O)c1ccc(Br)cc1` [2-(4-Bromo-benzenesulfonyl)-2-methyl-N-(6-trifluoromethyl-pyridin-2-yl)-propionamide], for which the agonistic activity result was “agonistic activity”.

As to `CC(C)(C(=O)Nc1ncc(-c2ccc(F)c(F)c2)s1)S(=O)(=O)c1ccc(F)cc1` [N-[5-(3,4-Difluoro-phenyl)-thiazol-2-yl]-2-(4-fluoro-benzenesulfonyl)-2-methyl-propionamide], the agonistic activity result is reported as “agonistic activity”.

In the case of `CC(C)(C(=O)Nc1nc(-c2ccccc2)c(-c2ccccc2)s1)S(=O)(=O)c1ccc(Cl)cc1` [2-(4-Chloro-benzenesulfonyl)-N-(4,5-diphenyl-thiazol-2-yl)-2-methyl-propionamide], the agonistic activity entry was “agonistic activity”.

In the case of `CC(C)c1ccc(S(=O)(=O)C(C)(C)C(=O)Nc2cc(C(C)(C)C)on2)cc1` [N-(5-tert-Butyl-isoxazol-3-yl)-2-(4-isopropyl-benzenesulfonyl)-2-methyl-propionamide], the agonistic activity result was “agonistic activity”.

In the case of `CC(C)(C(=O)Nc1nc2ccccc2o1)S(=O)(=O)c1ccc(S(C)(=O)=O)cc1` [N-1,3-benzoxazol-2-yl-2-methyl-2-{[4-(methylsulfonyl)phenyl]sulfonyl}propanamide], the agonistic activity entry was “agonistic activity”.

On to `CC(C)(C(=O)Nc1nc(-c2ccccc2)ns1)S(=O)(=O)c1ccc(Cl)cc1` [2-(4-Chloro-benzenesulfonyl)-2-methyl-N-(3-phenyl-[1,2,4]thiadiazol-5-yl)-propionamide], for which the agonistic activity entry is on record as “agonistic activity”.

`Cn1nc(-c2ccccc2)cc1NC(=O)C(C)(C)S(=O)(=O)c1ccc(Cl)cc1F` [2-(4-Chloro-2-fluoro-benzenesulfonyl)-2-methyl-N-(2-methyl-5-phenyl-2H-pyrazol-3-yl)-propionamide]: the agonistic activity result is “agonistic activity”.

As to `Cc1ccc(S(=O)(=O)C(C)(C)C(=O)Nc2nc(C(F)(F)F)cs2)cc1` [2-Methyl-2-(toluene-4-sulfonyl)-N-(4-trifluoromethyl-thiazol-2-yl)-propionamide], the agonistic activity entry is reported as “agonistic activity”.

For the compound `Cc1nc(NC(=O)C(C)(C)S(=O)(=O)c2ccc(Cl)cc2)sc1C(C)(C)C` [N-(5-tert-Butyl-4-methyl-thiazol-2-yl)-2-(4-chloro-benzenesulfonyl)-2-methyl-propionamide], the agonistic activity entry is on record as “agonistic activity”.

Source of the values: US8299111B2, “Compounds which modulate the CB2 receptor” (Boehringer Ingelheim International GmbH, priority 2006, dated 2012).
